The assay concerns the target human P2X7 receptor (Homo sapiens, UniProt Q99572, R270H/Y155H). Nature of the assay: Evaluation of human P2X7 receptor inhibitory activity (Yo-Pro uptake, BzATP stimulation, FLIPR TETRA). Format: cell-based. The essentials:
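1321N1 cells stably expressing human P2X7 (T606C/G952A SNP variant), in HBSS buffer pH 7.4-7.5 with Yo-Pro, stimulated with BzATP; compound added 8 min after agonist. Fluorescence followed for 20 min on FLIPR; max-minus-min change gave % inhibition, IC50 by logistic fit.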

The mark [1] stands for this setting: 1321N1 cells stably expressing human P2X7 receptor, BzATP stimulation, Yo-Pro uptake, read-out: IC50 (antagonistic activity for the human P2X7 receptor), class symbol.
Where [2] appears, read: antagonistic activity for the human P2X7 receptor, read-out: IC50.
Setting [3] is: 1321N1 cells stably expressing human P2X7 receptor, BzATP stimulation, Yo-Pro uptake, read-out: IC50 (antagonistic activity for the human P2X7 receptor).

Read-outs that look alike come from different tables or passages of the source.

Usually IC50 stands for the midpoint of a concentration-inhibition curve. In the case of `Cc1c(Cl)cccc1Nc1nc(=O)c(OC(C)C)cn1Cc1ccccc1` [Compound I-0142], the IC50 under setting [1] was in the range of 10 to 100 nM.

Turning to `COc1cn(Cc2ccccc2)c(Nc2cccc(OC(F)F)c2C)nc1=O` [Compound I-0093], the IC50 under setting [1] fell in the range of 10 to 100 nM.

As to `Cc1c(Cl)cccc1Nc1nc(=O)c(CC(=O)NCCO)cn1Cc1ccccc1` [Compound I-0337], the IC50 under setting [1] lay in the range of 100 to 500 nM.

`COc1cn(Cc2cc(F)c(F)c(F)c2)c(Nc2cc(C)c(OC(F)F)cc2C)nc1=O` [Compound I-0607]: under setting [2], the IC50 was less than 10 nM.

Consider `COc1cn(Cc2ccccc2)c(Nc2cc(S(C)(=O)=O)ccc2C)nc1=O` [Compound I-0513], for which the IC50 under setting [1] is 100 to 500 nM.

As to `COc1cn(Cc2cc(F)cc(Cl)c2)c(Nc2cc3ncccc3cc2C)nc1=O` [Compound I-0773], the IC50 under setting [2] was in the range of 100 to 500 nM.

Regarding `COc1c(C)ccc(Nc2nc(=O)c(OC)cn2Cc2cc(F)cc(Cl)c2)c1C` [Compound I-0610], the IC50 under setting [2] fell in the range of 10 to 100 nM.

As to `CCc1ccccc1CNc1nc(=O)c(OC)cn1Cc1ccc(F)c(Cl)c1` [Compound I-0453], the IC50 under setting [3] is 73 nM.

As for `Cc1nc2cc(C)c(Nc3nc(=O)c(F)cn3Cc3ccc(F)c(F)c3)cc2s1` [Compound I-1010], the concentration for half-maximal inhibition (IC50) under setting [2] was less than 10 nM.

Regarding `COCc1cn(Cc2cc(F)c(F)c(F)c2)c(Nc2cc(OCCO)ccc2C)nc1=O` [Compound I-1125], the IC50 under setting [2] was in the range of 10 to 100 nM.

Regarding `CCc1cc(Br)ccc1Nc1nc(=O)c(OC)cn1Cc1ccc(F)c(Cl)c1` [Compound I-0631], the IC50 under setting [2] is 10 to 100 nM.

Consider `COc1cn(Cc2ccc(F)c(Cl)c2)c(Nc2ccc(C#N)cc2C)cc1=O` [Compound I-0958], for which the IC50 under setting [2] was 100 to 500 nM.

In the case of `CCc1ccccc1Nc1nc(=O)c(OC)cn1Cc1ccc(F)cc1` [Compound I-0200], under setting [1], the IC50 lay within 10 to 100 nM.

Turning to `COCc1ccc(C)c(Nc2nc(=O)c(F)cn2Cc2cc(F)cc(F)c2)c1` [Compound I-0996], the IC50 under setting [2] fell in the range of 10 to 100 nM.

Consider `COc1cc(C)c(C)c(Nc2nc(=O)c(F)cn2Cc2cc(F)cc(F)c2)c1` [Compound I-1233], for which, under setting [2], the IC50 is less than 10 nM.

Regarding `COc1cn(Cc2cc(F)cc(F)c2)c(Nc2cc(C)c(F)cc2C)nc1=O` [Compound I-0437], the IC50 under setting [3] worked out at 8 nM.

For `COc1cn(Cc2ccccc2)c(Nc2cc([N+](=O)[O-])ccc2C)nc1=O` [Compound I-0155], the IC50 under setting [1] fell in the range of 500 to 1000 nM.

Turning to `COc1cn(Cc2ccc(F)c(Cl)c2)c(Nc2cccc(OC(F)F)c2C)nc1=O` [Compound I-0511], under setting [1], the IC50 is less than 10 nM.

For `COC(=O)c1ccc(C)c(Nc2nc(=O)c(OC)cn2Cc2ccccc2)c1` [Compound I-0150], the IC50 under setting [1] lay in the range of 100 to 500 nM.

Turning to `COc1cn(Cc2cc(F)cc(F)c2)c(Nc2cc(OCC(F)(F)F)ccc2C)nc1=O` [Compound I-0496], under setting [1], the half-maximal inhibitory concentration (IC50) was in the range of 10 to 100 nM.

Regarding `COc1cn(Cc2cc(F)cc(F)c2)c(Nc2cccc3occc23)nc1=O` [Compound I-0640], under setting [2], the IC50 was 10 to 100 nM.

In the case of `COc1cc(F)c(Nc2nc(=O)c(C)nn2Cc2cc(F)c(F)c(F)c2)cc1OC` [Compound I-1257], the IC50 under setting [2] was in the range of 10 to 100 nM.

For `COc1cc(C)c(Nc2nc(=O)c(C(=O)O)nn2Cc2cc(F)c(F)c(F)c2)cc1OC` [Compound I-1251], under setting [2], the IC50 is 10 to 100 nM.

Regarding `COc1cn(Cc2cc(F)cc(F)c2)c(Nc2cc(-c3ccnn3C)ccc2C)nc1=O` [Compound I-0784], under setting [2], the IC50 fell in the range of 10 to 100 nM.

`Cc1c(Cl)cccc1Nc1nc(=O)c(C(=O)NCC#N)cn1Cc1ccccc1` [Compound I-0075]: the half-inhibitory concentration (IC50) under setting [1] was in the range of 100 to 500 nM.

Turning to `COc1cn(Cc2ccc(F)cc2)c(Nc2cccc(C)c2Cl)nc1=O` [Compound I-0662], the IC50 under setting [2] lay within 10 to 100 nM.

In the case of `COc1cn(Cc2cc(F)c(F)c(F)c2)c(Nc2ccc(OCF)cc2C)nc1=O` [Compound I-0943], under setting [2], the half-inhibitory concentration (IC50) was less than 10 nM.

For `COc1cn(Cc2ccccc2)c(Nc2cc(Cl)c(Cl)cc2Cl)nc1=O` [Compound I-0154], under setting [1], the IC50 fell in the range of 100 to 500 nM.

In the case of `CCc1ccc(OC)cc1Nc1nc(=O)c(F)cn1Cc1cc(F)c(F)c(F)c1` [Compound I-1191], under setting [2], the IC50 was less than 10 nM.

Take `COc1cn(Cc2ccc(F)c(Cl)c2)c(Nc2cc(C(C)(C)O)ccc2C)nc1=O` [Compound I-0775]: the IC50 under setting [2] lay in the range of 10 to 100 nM.

Turning to `Cc1cc2c(cc1Nc1nc(=O)c(F)cn1Cc1cccc(Cl)c1)OCCO2` [Compound I-0368], the IC50 under setting [1] lay within 10 to 100 nM.

`COc1cn(Cc2ccc(F)c(Cl)c2)c(Nc2cc(N3CCOCC3)ccc2C)nc1=O` [Compound I-0735]: the IC50 under setting [2] was 10 to 100 nM.

Turning to `COc1cn(Cc2cccc(F)c2)c(Nc2cc(C)ccc2C)nc1=O` [Compound I-0644], under setting [2], the IC50 is 10 to 100 nM.

As to `COc1cn(Cc2ccccc2)c(Nc2cccc3c(=O)[nH]ccc23)nc1=O` [Compound I-0392], under setting [1], the IC50 fell in the range of 10 to 100 nM.

As to `CCc1cc2c(cc1Nc1nc(=O)c(OC)cn1Cc1ccc(F)c(Cl)c1)OC(F)(F)O2` [Compound I-0730], the IC50 under setting [2] lay within 10 to 100 nM.

Regarding `CCc1cc2c(cc1Nc1nc(=O)c(OC)cn1Cc1ccccc1Cl)CCC2` [Compound I-0194], under setting [1], the half-inhibitory concentration (IC50) fell in the range of 10 to 100 nM.

For the compound `Cc1ccc(CF)cc1Nc1nc(=O)c(F)cn1Cc1cc(F)c(F)c(F)c1` [Compound I-1231], the IC50 under setting [2] was less than 10 nM.

Turning to `CCc1cc2c(cc1Nc1nc(=O)c(OC)cn1Cc1cc(F)cc(F)c1)OC(F)(F)O2` [Compound I-0729], the concentration for half-maximal inhibition (IC50) under setting [2] fell in the range of 100 to 500 nM.

For the compound `COc1cn(Cc2ccc(F)c(Cl)c2)c(Nc2cc3c(cc2C)OCC=C3)nc1=O` [Compound I-0912], the IC50 under setting [3] is 22 nM.

As for `COc1cn(Cc2ccc(F)c(Cl)c2)c(Nc2cc(C)c(OC(F)F)cc2C)nc1=O` [Compound I-0244], the IC50 under setting [1] is less than 10 nM.

For `Cc1cccc(C)c1Nc1nc(=O)c(F)cn1Cc1ccccc1` [Compound I-0153], the IC50 under setting [1] lay within 10 to 100 nM.

Turning to `Cc1c(Cl)cccc1Nc1nc(=O)c(C(=O)NCC(F)(F)F)cn1Cc1ccccc1` [Compound I-0098], the IC50 under setting [1] lay within 500 to 1000 nM.

With `CCc1cccc(Nc2nc(=O)c(OC)cn2Cc2ccccc2)c1CC` [Compound I-0136], the IC50 under setting [1] is less than 10 nM.

Consider `COc1cn(Cc2cc(F)cc(F)c2)c(Nc2cc3c(cc2C)OC(F)(F)O3)nc1=O` [Compound I-0726], for which the IC50 under setting [2] lay within 100 to 500 nM.

Regarding `COc1c(C)ccc(Nc2nc(=O)c(OC)cn2Cc2ccc(F)c(F)c2)c1C` [Compound I-0517], the 50% inhibitory concentration (IC50) under setting [1] is less than 10 nM.

Consider `COc1cn(Cc2ccc(F)c(F)c2)c(Nc2cc(C)ccc2C)nc1=O` [Compound I-0434], for which, under setting [1], the IC50 is less than 10 nM.

Take `COc1cn(Cc2cc(F)cc(Cl)c2)c(Nc2cc(N3CCCC3=O)ccc2C)nc1=O` [Compound I-0647]: under setting [2], the IC50 was in the range of 10 to 100 nM.

On to `Cc1nc2cc(C)c(Nc3nc(=O)c(Cl)cn3Cc3ccc(F)c(Cl)c3)cc2s1` [Compound I-0787], for which, under setting [2], the IC50 is less than 10 nM.

On to `Cc1nc2cc(C)c(Nc3nc(=O)c(F)cn3Cc3cc(F)c(F)c(F)c3)cc2s1` [Compound I-0937], for which, under setting [2], the IC50 was less than 10 nM.

For `COc1cn(Cc2cc(F)c(F)c(F)c2)c(Nc2cc(OC(C)C)ccc2C)nc1=O` [Compound I-0633], the IC50 under setting [2] was less than 10 nM.

Take `CCOc1ccc(Nc2nc(=O)c(F)cn2Cc2ccc(F)c(F)c2)c(C)c1` [Compound I-1048]: under setting [2], the IC50 is 10 to 100 nM.

As to `COc1ccc(Nc2nc(=O)c(F)cn2Cc2ccc(F)c(Cl)c2)c(C)n1` [Compound I-1059], the IC50 under setting [3] amounted to 11 nM.

With `COc1cn(Cc2cccc(F)c2F)c(Nc2cccc(Cl)c2C)nc1=O` [Compound I-0286], under setting [1], the IC50 fell in the range of 10 to 100 nM.

Regarding `COc1cn(Cc2cccc(Cl)c2)c(Nc2cc(C)ccc2C)nc1=O` [Compound I-0333], the concentration for half-maximal inhibition (IC50) under setting [1] was in the range of 10 to 100 nM.

Values taken from patent US10774051B2, “6-membered heterocyclic derivatives and pharmaceutical composition comprising the same” (Shionogi & Co., Ltd., priority 2015, dated 2020).
